Test results: patent US20170152245A1 (National Taiwan University, priority 2015, published 2017)

Tested on: human platelet suspension
Assay: U46619-induced platelet aggregation in human platelet suspension
Type: cell-based
Settings: Homo sapiens, Platelet, U46619-induced aggregation, platelet suspension; read-out: P.S(U46619) IC50
Experimental: Human platelet suspension (PS) was prepared according to the method described previously. Briefly, blood sample, freshly obtained from healthy volunteers who had taken no medications during the preceding 2 weeks, was treated with acid citrate/dextrose (ACD) in a volume ratio of 9:1. After centrifugation at 120 g, 25° C. for 9 min, platelet-rich plasma was transferred into another plastic tube and incubated with heparin (6.4 U/ml) as well as prostaglandin E1 (1 μM). Platelets were spun down by centrifugation at 500 g, 25° C. for 8 min and subsequently washed two times with Tyrode solution (NaH2PO4 0.4 mM; NaCl 136.9 mM; KCl […]; NaHCO3 11.9 mM; CaCl2 2 mM; MgCl2 2.1 mM; glucose 11.1 mM; BSA 3.5 mg/ml; pH 7.35-7.4). The washed platelets were finally suspended in Tyrode's solution and the platelet count was adjusted to 3.75×10^8 platelets/ml. For platelet-rich plasma (PRP) preparation, whole blood was anticoagulated with 1/10 vol of sodium citrate (3.8%, w/v) and centrifuged at 150 g, 25° C. for 9 min.
Platelet aggregation was measured turbidimetrically with a Lumi-aggregometer (Payton Scientific) at 37° C. under stirring condition (900 rpm). Platelet suspensions were prewarmed to 37° C. for 2 min in a silicone-treated glass cuvette. Nstpbp5185 was added 3 min before the addition of platelet-aggregation inducers. The extent of platelet aggregation was determined by recording the increase of light transmission relative to that of control (maximal aggregation, as 100%) for 6 min after the addition of inducer. The final volume and platelet count for measuring platelet aggregation were 500 μl and 3×10^8/ml, respectively.

IC50	Structure (SMILES)
40.3 µM	Cc1ccc(Cn2c(-c3ccc(C)o3)nc3cc(Cl)c(Cl)cc32)cc1 [Example 66, 5,6-dichloro-1-(4-methylbenzyl)-2-(5-methyl-2-furyl)benzimidazole]
6.79 µM	Cc1ccc(-c2nc3ccc(F)cc3n2Cc2ccccc2)o1 [Example 30a, 1-benzyl-6-fluoro-2-(5-methyl-2-furyl)benzimidazole]
19.2 µM	Cc1ccc(-c2nc3ccc(C(=O)c4ccccc4)cc3n2Cc2cccc(Cl)c2)o1 [Example 74, 6-benzoyl-1-(3-chlorobenzyl)-2-(5-methyl-2-furyl)benzimidazole]
26.9 µM	COc1ccc(Cn2c(-c3ccc(C)o3)nc3cc(Cl)c(Cl)cc32)cc1 [Example 61, 5,6-dichloro-1-(4-methoxybenzyl)-2-(5-methyl-2-furyl)benzimidazole]
3.13 µM	Cc1ccc(-c2nc3ccc(Cl)cc3n2Cc2ccc(F)cc2)o1 [Example 46a, 6-chloro-1-(4-fluorobenzyl)-2-(5-methyl-2-furyl)benzimidazole]
53.4 µM	Cc1ccc(Cn2c(-c3ccc(C)o3)nc3ccc(Cl)cc32)cc1 [Example 51a, 6-chloro-1-(4-methylbenzyl)-2-(5-methyl-2-furyl)benzimidazole]
36.5 µM	Cc1ccc(-c2nc3ccc(Cl)cc3n2Cc2ccc(Cl)cc2)o1 [Example 43a, 6-chloro-1-(4-chlorobenzyl)-2-(5-methyl-2-furyl) benzimidazole]
> 50 µM	Cc1ccc(-c2nc3ccc(C(=O)c4ccccc4)cc3n2Cc2cccc(F)c2)o1 [Example 79, 6-Benzoyl-1-(3-fluorobenzyl)-2-(5-methyl-2-furyl)benzimidazole]
2.68 µM	Cc1ccc(-c2nc3cc(Cl)c(Cl)cc3n2Cc2ccc(F)cc2)o1 [Example 63, 5,6-dichloro-1-(4-fluorobenzyl)-2-(5-methyl-2-furyl)benzimidazole]
1.45 µM	COc1ccc2nc(-c3ccc(C)o3)n(Cc3ccccc3)c2c1 [Example 25a, 1-benzyl-6-methoxy-2-(5-methyl-2-furyl)benzimidazole]
3.74 µM	Cc1ccc(-c2nc3cc(Cl)c(Cl)cc3n2Cc2cccc(Cl)c2)o1 [Example 59, 5,6-dichloro-1-(3-chlorobenzyl)-2-(5-methyl-2-furyl)benzimidazole]
4.26 µM	Cc1ccc(-c2nc3cc(F)ccc3n2Cc2cccc(Cl)c2)o1 [Example 32a, 5-fluoro-1-(3-chlorobenzyl)-2-(5-methyl-2-furyl)benzimidazole]
44.5 µM	COc1ccc2[nH]c(-c3ccc(C)o3)nc2c1 [Example 25, 5-Methoxy-2-(5-methyl-2-furyl)benzimidazole]
> 50 µM	COc1cccc(Cn2c(-c3ccc(C)o3)nc3ccc(C(=O)c4ccccc4)cc32)c1 [Example 77, 6-benzoyl-1-(3-methoxybenzyl)-2-(5-methyl-2-furyl)benzimidazole]
2.38 µM	Cc1ccc(-c2nc3ccc(F)cc3n2Cc2ccccc2C)o1 [Example 41b, 6-fluoro-1-(2-methylbenzyl)-2-(5-methyl-2-furyl)benzimidazole]
5.39 µM	Cc1cccc(Cn2c(-c3ccc(C)o3)nc3ccc(F)cc32)c1 [Example 40b, 6-Fluoro-1-(3-methylbenzyl)-2-(5-methyl-2-furyl)benzimidazole]
5.13 µM	Cc1ccc(-c2nc3cc(Cl)c(Cl)cc3[nH]2)o1 [Example 54, 5,6-dichloro-2-(5-methyl-2-furyl)benzimidazole]
9.74 µM	Cc1ccc(-c2nc3cc(Cl)ccc3n2Cc2cccc(Cl)c2)o1 [Example 44a, 5-chloro-1-(3-chlorobenzyl)-2-(5-methyl-2-furyl)benzimidazole]
6.52 µM	Cc1cccc(Cn2c(-c3ccc(C)o3)nc3cc(Cl)c(Cl)cc32)c1 [Example 67, 5,6-dichloro-1-(3-methylbenzyl)-2-(5-methyl-2-furyl)benzimidazole]
6.98 µM	Cc1ccc(-c2nc3cc(Cl)c(Cl)cc3n2Cc2ccccc2)o1 [Example 54a, 1-Benzyl-5,6-dichloro-2-(5-methyl-2-furyl)benzimidazole]
